# Experimental data as given in EPA's ToxRefDB 2.
# Experiments:
# [1] = test system: rat; conditions: Prenatal developmental toxicity study, sprague dawley, Oral, Gavage/Intubation, dose end: 15 GD
# [2] = test system: rat; conditions: Prenatal developmental toxicity study, sprague dawley, Oral, Gavage/Intubation, dose end: 19 GD
# [3] = test system: rabbit; conditions: Prenatal developmental toxicity study, new zealand white, Oral, Gavage/Intubation, dose end: 28 GD
# [4] = test system: rabbit; conditions: Prenatal developmental toxicity study, new zealand white, Oral, Gavage/Intubation, dose end: 28 GD; remark: listed apart in the source
# [5] = test system: rat; conditions: Peri- and post-natal toxicity study (Segment III), sprague dawley, Oral, Gavage/Intubation, dose end: 40 PND
# [6] = test system: dog; conditions: Prenatal developmental toxicity study, beagle, Oral, Feed, dose end: 56 GD
# [7] = test system: rat; conditions: Combined chronic toxicity/carcinogenicity, wistar, Oral, Feed, dose end: 104 week
# [8] = test system: dog; conditions: Chronic toxicity, beagle, Oral, Feed, dose end: 104 week
# [9] = test system: rabbit; conditions: Prenatal developmental toxicity study, new zealand white, Oral, Gavage/Intubation, dose end: 18 GD
# [10] = test system: rat; conditions: Subchronic oral toxicity in rodents, fischer, Feed, dose end: 13 week
# [11] = test system: mouse; conditions: Combined chronic toxicity/carcinogenicity, b6c3f1, Oral, Feed, dose end: 105 week
# [12] = test system: mouse; conditions: Subchronic oral toxicity in rodents, b6c3f1, Gavage/Intubation, dose end: 13 week
# [13] = test system: rat; conditions: Combined chronic toxicity/carcinogenicity, fischer, Oral, Feed, dose end: 104 week
# [14] = test system: mouse; conditions: Subchronic oral toxicity in rodents, b6c3f1, Feed, dose end: 13 week
# [15] = test system: rat; conditions: Subchronic oral toxicity in rodents, fischer, Gavage/Intubation, dose end: 13 week
# [16] = group: developmental, developmental / developmental malformation / bone / absent + developmental / developmental malformation / bone / bipartite ossification + …
# [17] = group: maternal, systemic / pathology gross / liver / enlarged + systemic / in life observation / clinical signs / salivation
# [18] = group: developmental, developmental / developmental malformation / bone / fused cartilage + systemic / in life observation / body weight / fetal weight
# [19] = group: maternal, systemic / in life observation / body weight / body weight gain + systemic / in life observation / food consumption / food consumption
# [20] = group: maternal, systemic / in life observation / body weight / body weight gain + systemic / in life observation / food consumption / food consumption + …
# [21] = group: developmental, developmental / developmental malformation / bone / delayed ossification + developmental / developmental malformation / bone / hemicentric…
# [22] = group: developmental, developmental / developmental malformation / trunk / omphalocele + systemic / in life observation / body weight / fetal weight
# [23] = group: maternal, reproductive / reproductive performance / resorptions / resorptions + systemic / in life observation / body weight / body weight + systemic…
# [24] = group: developmental, developmental / developmental landmark / vaginal opening / vaginal opening
# [25] = group: maternal, reproductive / reproductive performance / estrous cycle / abnormal + reproductive / reproductive performance / estrous cycle / corpora lutea
# [26] = group: parental, systemic / clinical chemistry / estradiol / estradiol + systemic / organ weight / kidney / absolute + systemic / organ weight / ovary / …
# [27] = group: developmental, developmental / offspring survival late / [other] / [other] + systemic / in life observation / body weight / offspring (pup) weight
# [28] = group: maternal, reproductive / offspring survival early / dead fetuses / dead fetuses
# [29] = group: cholinesterase, cholinesterase / cholinesterase / cholinesterase / plasma cholinesterase (che)
# [30] = group: systemic, systemic / hematology / erythrocyte (rbc) count differential / erythrocyte (rbc) + systemic / hematology / reticulocyte / reticulocyte + …
# [31] = group: systemic, systemic / in life observation / food consumption / food consumption + systemic / in life observation / clinical signs / hindlimb strength…
# [32] = group: cholinesterase, cholinesterase / cholinesterase / cholinesterase / cholinesterase (che)
# [33] = group: developmental, developmental / developmental malformation / liver / discolored
# [34] = group: maternal, systemic / in life observation / body weight / body weight + systemic / in life observation / body weight / body weight gain
# [35] = group: systemic, systemic / in life observation / body weight / body weight + systemic / in life observation / body weight / body weight gain + systemic / in…
# [36] = group: systemic, systemic / pathology microscopic / adrenal gland / vacuolization cytoplasmic
# [37] = group: systemic, systemic / pathology microscopic / adrenal gland / pigmentation
# [38] = group: systemic, systemic / pathology microscopic / adrenal gland / vacuolization cytoplasmic + systemic / pathology microscopic / ovary / hypertrophy
# [39] = group: systemic, systemic / pathology microscopic / ovary / hyperplasia + systemic / in life observation / clinical signs / grip strength + systemic / organ …
# [40] = group: systemic, systemic / hematology / hemoglobin (hgb) / hemoglobin (hgb) + systemic / hematology / mean corpuscular hemoglobin concentration (mchc) / …
# [41] = group: systemic, systemic / hematology / hemoglobin (hgb) / hemoglobin (hgb) + systemic / in life observation / clinical signs / grip strength + systemic / …
smiles,measurement,setting,value
C[N+]12CN3CN(CN(C3)C1)C2.[Cl-],LEL,[1]; [16],1500 mg/kg/day
same,LOAEL,[1]; [16],1500 mg/kg/day
same,NEL,[1]; [16],< 1500 mg/kg/day
same,NOAEL,[1]; [16],< 1500 mg/kg/day
same,LOAEL,"[1]; group: maternal, systemic / in life observation / body weight / body weight + systemic / pathology gross / liver / enlarged",3000 mg/kg/day
same,NOAEL,"[1]; group: maternal, systemic / in life observation / body weight / body weight + systemic / pathology gross / liver / enlarged + reproductive / reproductive …",1500 mg/kg/day
same,LEL,[1]; [17],1500 mg/kg/day
same,NEL,[1]; [17],< 1500 mg/kg/day
"CC(C)c1ccc2cc(C(C)C)ccc2c1 [2,6-Diisopropylnaphthalene]",LEL,[2]; [18],500 mg/kg/day
same,LOAEL,[2]; [18],500 mg/kg/day
same,NEL,[2]; [18],150 mg/kg/day
same,NOAEL,[2]; [18],150 mg/kg/day
same,LEL,[2]; [19],150 mg/kg/day
same,LOAEL,[2]; [19],150 mg/kg/day
same,NEL,[2]; [20],50 mg/kg/day
same,NOAEL,[2]; [20],50 mg/kg/day
O.O.[Cu] [Copper(II) hydroxide],LEL,[3]; [21],18 mg/kg/day
same,LOAEL,[3]; [21],18 mg/kg/day
same,NEL,[3]; [21],9 mg/kg/day
same,NOAEL,[3]; [21],9 mg/kg/day
same,LEL,[3]; [19],9 mg/kg/day
same,LOAEL,[3]; [19],9 mg/kg/day
same,NEL,[3]; [20],6 mg/kg/day
same,NOAEL,[3]; [20],6 mg/kg/day
same,LEL,[4]; [22],30 mg/kg/day
same,LOAEL,[4]; [22],> 30 mg/kg/day
same,NEL,[4]; [22],15 mg/kg/day
same,NOAEL,[4]; [22],≥ 30 mg/kg/day
same,LOAEL,[4]; [23],> 30 mg/kg/day
same,NEL,[4]; [23],7.5 mg/kg/day
same,NOAEL,[4]; [23],≥ 30 mg/kg/day
same,LEL,"[4]; group: maternal, systemic / in life observation / body weight / body weight + systemic / in life observation / body weight / body weight gain + systemic / in…",15 mg/kg/day
CC(C)OC(=O)c1ccc(O)cc1 [Isopropylparaben],LEL,[5]; [24],250 mg/kg/day
same,LOAEL,[5]; [24],> 1000 mg/kg/day
same,NEL,[5]; [24],62.5 mg/kg/day
same,NOAEL,[5]; [24],≥ 1000 mg/kg/day
same,LEL,[5]; [25],1000 mg/kg/day
same,LOAEL,[5]; [25],> 1000 mg/kg/day
same,NEL,[5]; [25],250 mg/kg/day
same,NOAEL,[5]; [25],≥ 1000 mg/kg/day
same,LEL,[5]; [26],1000 mg/kg/day
same,LOAEL,[5]; [26],> 1000 mg/kg/day
same,NEL,[5]; [26],250 mg/kg/day
same,NOAEL,[5]; [26],≥ 1000 mg/kg/day
C1N2CN3CN1CN(C2)C3 [Methenamine],LEL,[6]; [27],31 mg/kg/day
same,LOAEL,[6]; [27],> 31 mg/kg/day
same,NEL,[6]; [27],15 mg/kg/day
same,NOAEL,[6]; [27],≥ 31 mg/kg/day
same,LEL,[6]; [28],31 mg/kg/day
same,LOAEL,[6]; [28],> 31 mg/kg/day
same,NEL,[6]; [28],15 mg/kg/day
same,NOAEL,[6]; [28],≥ 31 mg/kg/day
CNC(=O)Oc1cc(C)c(SC)c(C)c1 [Methiocarb],LEL,[7]; [29],30 mg/kg/day
same,LOAEL,[7]; [29],> 30 mg/kg/day
same,NEL,[7]; [29],10 mg/kg/day
same,NOAEL,[7]; [29],≥ 30 mg/kg/day
same,LOAEL,"[7]; group: systemic, systemic / hematology / erythrocyte (rbc) count differential / erythrocyte (rbc)",10 mg/kg/day
same,LEL,"[7]; group: systemic, systemic / hematology / erythrocyte (rbc) count differential / erythrocyte (rbc) + systemic / hematology / reticulocyte / reticulocyte",10 mg/kg/day
same,NEL,[7]; [30],3.4 mg/kg/day
same,NOAEL,[7]; [30],3.4 mg/kg/day
same,LEL,[8]; [29],0.75 mg/kg/day
same,LOAEL,[8]; [29],0.75 mg/kg/day
same,NEL,[8]; [29],< 0.75 mg/kg/day
same,NOAEL,[8]; [29],< 0.75 mg/kg/day
same,LOAEL,"[8]; group: systemic, systemic / in life observation / clinical signs / tremors",12 mg/kg/day
same,LEL,"[8]; group: systemic, systemic / in life observation / food consumption / food consumption",3 mg/kg/day
same,NEL,[8]; [31],0.75 mg/kg/day
same,NOAEL,[8]; [31],3 mg/kg/day
same,LEL,[9]; [32],10 mg/kg/day
same,LOAEL,[9]; [32],10 mg/kg/day
same,NEL,[9]; [32],3 mg/kg/day
same,NOAEL,[9]; [32],3 mg/kg/day
same,LEL,[9]; [33],10 mg/kg/day
same,LOAEL,[9]; [33],> 10 mg/kg/day
same,NEL,[9]; [33],3 mg/kg/day
same,NOAEL,[9]; [33],≥ 10 mg/kg/day
same,LEL,[9]; [34],10 mg/kg/day
same,LOAEL,[9]; [34],10 mg/kg/day
same,NEL,[9]; [34],3 mg/kg/day
same,NOAEL,[9]; [34],3 mg/kg/day
Cc1ccc(OP(=O)(Oc2ccc(C)cc2)Oc2ccc(C)cc2)cc1.Cc1cccc(OP(=O)(Oc2cccc(C)c2)Oc2cccc(C)c2)c1.Cc1ccccc1OP(=O)(Oc1ccccc1C)Oc1ccccc1C [Tricresyl phosphate],LEL,[10]; [32],55 mg/kg/day
same,LOAEL,[10]; [32],> 750 mg/kg/day
same,NEL,[10]; [32],< 55 mg/kg/day
same,NOAEL,[10]; [32],≥ 750 mg/kg/day
same,LOAEL,[10]; [35],> 750 mg/kg/day
same,NOAEL,[10]; [35],≥ 750 mg/kg/day
same,LEL,[10]; [36],55 mg/kg/day
same,NEL,[10]; [36],< 55 mg/kg/day
same,LEL,[11]; [32],7 mg/kg/day
same,LOAEL,[11]; [32],7 mg/kg/day
same,NEL,[11]; [32],< 7 mg/kg/day
same,NOAEL,[11]; [32],< 7 mg/kg/day
same,LEL,[11]; [37],8 mg/kg/day
same,LOAEL,[11]; [37],8 mg/kg/day
same,NEL,[11]; [37],< 8 mg/kg/day
same,NOAEL,[11]; [37],< 8 mg/kg/day
same,LEL,[12]; [32],50 mg/kg/day
same,LOAEL,[12]; [32],> 800 mg/kg/day
same,NEL,[12]; [32],< 50 mg/kg/day
same,NOAEL,[12]; [32],≥ 800 mg/kg/day
same,LOAEL,[12]; [35],> 800 mg/kg/day
same,NOAEL,[12]; [35],≥ 800 mg/kg/day
same,LEL,[12]; [38],50 mg/kg/day
same,NEL,[12]; [38],< 50 mg/kg/day
same,LEL,[13]; [32],4 mg/kg/day
same,LOAEL,[13]; [32],> 30 mg/kg/day
same,NEL,[13]; [32],< 4 mg/kg/day
same,NOAEL,[13]; [32],≥ 30 mg/kg/day
same,LEL,"[13]; group: systemic, systemic / pathology microscopic / ovary / hyperplasia",7 mg/kg/day
same,LOAEL,[13]; [39],> 30 mg/kg/day
same,NEL,[13]; [39],4 mg/kg/day
same,NOAEL,[13]; [39],≥ 30 mg/kg/day
same,LEL,[14]; [32],45 mg/kg/day
same,LOAEL,[14]; [32],> 900 mg/kg/day
same,NEL,[14]; [32],< 45 mg/kg/day
same,NOAEL,[14]; [32],≥ 900 mg/kg/day
same,LOAEL,[14]; [40],> 900 mg/kg/day
same,NOAEL,[14]; [40],≥ 900 mg/kg/day
same,LEL,[14]; [36],65 mg/kg/day
same,NEL,[14]; [36],< 65 mg/kg/day
same,LEL,[15]; [32],50 mg/kg/day
same,LOAEL,[15]; [32],> 800 mg/kg/day
same,NEL,[15]; [32],< 50 mg/kg/day
same,NOAEL,[15]; [32],≥ 800 mg/kg/day
same,LOAEL,[15]; [41],> 800 mg/kg/day
same,NOAEL,[15]; [41],≥ 800 mg/kg/day
same,LEL,[15]; [38],50 mg/kg/day
same,NEL,[15]; [38],< 50 mg/kg/day
